Reference: PMC9020739, “Identification of a two-component regulatory system involved in antimicrobial peptide resistance in Streptococcus pneumoniae” (PLoS Pathogens, 2022)
Where a SMILES comes first, the peptide text is derived from it. Bridges are numbered along the chain shown (N, C = ends). [ ]: non-standard residue; d: D form. The star is where a group is joined. Ileψ(thiazoline)Cys = CC[C@H](C)[C@H](N)C1=N[C@H](C(=O)*)CS1; dOrn = NCCC[C@@H](N)C(=O)O

Key:
[1] = target: BceAB transporter from S. pneumoniae (Streptococcus pneumoniae, UniProt A0A0H2ZN40); type: biochemical; details: 5 mM nucleotide, 300 μg/mL bacitracin
Protocol: E. coli BL21(DE3) cells were transformed with pRSF-Duet1-BceAB WT, K48A or E170Q and selected on LB-agar plates containing 50 μg/mL kanamycin. One colony was inoculated into in 2L-baffled flasks containing 500 mL of 2YT medium and 50 μg/mL kanamycin and grown at 37°C, 180 rpm to OD600 of 0.6. Protein expression was induced by adding IPTG to a final concentration of 1 mM. Induction was performed overnight at 25°C and cells were harvested by centrifugation at 7,000 g for 20 min.
Cells were resuspended in buffer A (HEPES-NaOH 100 mM pH 8.0, NaCl 150 mM) and lysed by passaging them three times through a cell disruptor (Microfluidizer, Microfluidics) at 18,000 psi (or 1,24 x 108 Pa). Undisrupted cells and cell debris were removed by centrifugation at 15,000 x g for 30 min at 4°C. Membranes were harvested from the supernatant after ultracentrifugation at 150,000 x g for 1 h at 4°C. Membranes were resuspended in 20 mL of buffer A and centrifuged once again at 150,000 x g for 1 h at 4°C. Membrane pellets were homogenized in buffer HEPES-NaOH 100 mM pH 8.0, NaCl 150 mM and 20% glycerol, and stored at -80°C.
For the purification of BceAB, membranes from 0,5 L cell culture were diluted in buffer B (100 mM d’HEPES-NaOH pH 8, 150 mM NaCl, 10% glycerol) to a protein concentration of 4 mg/mL and solubilized with 0.5% (w/v) LMNG for 2 h at 4°C. After ultracentrifugation at 150,000 x g for 1 h at 4°C, the supernatant containing solubilized proteins was diluted four times using buffer B and loaded on Ni^2+-charged immobilized metal-ion affinity chromatography (IMAC) column (1 mL HisTrap HP, Cytiva). The column was washed with 10 mL of buffer B containing 0.005% (w/v) LMNG and 20 mM of imidazole. The column was further washed with the same buffer until OD280nm reached basal levels. BceAB was eluted by buffer B containing 0.005% (w/v) LMNG and an imidazole gradient from 20 to 500 mM of imidazole. Purified BceAB was dialyzed into buffer B containing 0.005% (w/v) LMNG and stored at -80°C.
The proteoliposomes were prepared as previously described for the transporter BmrA [50]. Proteoliposomes were loaded on sucrose gradient with different layers of 400 μL of 50 mM HEPES-KOH pH 8.0 buffer containing 30, 20, 15 or 10% of sucrose. One mL of proteoliposomes was loaded on the top of the sucrose gradient and ultra-centrifuged at 200,000 x g for 12 h at 4°C. Proteoliposomes were typically collected from the 15% layer and were loaded on SDS-PAGE to analyze and quantify the presence of BceAB by using a standard-curve of purified BceAB and ImageJ.
These activities were performed as previously described.

[2] = tested on: BceA-GFP in S. pneumoniae R800; assay: BceA-GFP expression by fluorescence microscopy and Western blot; type: cell-based, Streptococcus pneumoniae; details: bacitracin 0.5 μg/mL, 30 min, 37°C, fluorescence microscopy of individual cells
Protocol: Cells were inoculated in C+Y medium and grown at 37°C, without agitation and in anaerobic conditions, until at OD550nm = 0.3. After centrifugation 5 min at 5,000 g, pellets were resuspended in 1/50th of initial volume in TE buffer (25 mM Tris-HCl pH = 7.5, EDTA 1 mM) with DNase/RNase 6 μg/mL and protease inhibitor CLAPA 1X (Chymostatin 1 μg/mL, Pepstatin 1 μg/mL, Leupeptin 1 μg/mL, Antipaïn 1 μg/mL, Aprotinin 4 μg/mL). Cells were lysed by sonication by using Sonifier 450 Branson device. 25 μg of crude extracts were mixed with Laemmli loading buffer and heated 10 min at 95°C. Samples were loaded onto an 12.5% SDS-PAGE and migration was performed in TG-SDS buffer (Tris-HCl 25 mM, Glycine 0.192 M, SDS 0.1% (v/v)). Proteins were transferred onto a PVDF membrane, previously activated by methanol 100%, in a transfer buffer (Tris-HCl 25 mM pH = 8, Glycine 0.192 M, methanol 20% (v/v), SDS 0.04% (v/v)). The membrane was washed with TBST (Tris-HCl 100 mM pH = 8, NaCl 150 mM, Tween 0.05%) and incubated 1 h with blocking buffer (BSA 5%, TBST). […]
Pneumococcal cells were grown at 37°C until OD550nm = 0.2 in C+Y medium. […] Images were analyzed using ImageJ (http://rsb.info.nih.gov/ij/) and the plugin MicrobeJ to generate violin plots.

[3] = tested on: S. pneumoniae R6 mutant strains (ΔbceAB, Δtcs01, ΔbceAB/tcs01); assay: Growth of wild-type and mutant strains in microplates with bacitracin; type: cell-based, Streptococcus pneumoniae; details: Todd-Hewitt broth, various bacitracin concentrations, 4 biological replicates (Fig 1)
Protocol: The MIC of various antimicrobial peptides for R6, R800 and D39 strains was determined by classical 2-fold broth dilution method. Cells were first grown in Todd-Hewitt medium at 37°C without agitation and in anaerobic conditions until the absorbance reaches approximatively 0.3. Complementation strains were grown with 0.5 μM ComS inducer until the appropriate OD. Cells were then diluted at final OD600nm = 0.002 in 96-well plates containing 300 μL of Todd-Hewitt medium (and 2 μM ComS inducer for the complementation strains) with serial dilutions of antimicrobial peptides. Pneumococcal growth was monitored by a microplate reader (TECAN) at 37°C without agitation. The absorbance was followed at 600 nm every 15 min for 15 h.

## CC[C@H](C)[C@H](N)C1=N[C@H](C(=O)N[C@@H](CC(C)C)C(=O)N[C@H](CCC(=O)O)C(=O)N[C@H](C(=O)N[C@H]2CCCCNC(=O)[C@H](CC(N)=O)NC(=O)[C@@H](CC(=O)O)NC(=O)[C@H](Cc3cnc[nH]3)NC(=O)[C@@H](Cc3ccccc3)NC(=O)[C@H]([C@@H](C)CC)NC(=O)[C@@H](CCCN)NC2=O)[C@@H](C)CC)CS1 [bacitracin] ({Ileψ(thiazoline)Cys}-L[dE]IK[dOrn]I[dF]H[dD]N; lactam 4-C (inferred); N-terminus assumed)
[1]; after reconstitution in liposomes, calculated on total protein added to the reconstitution mixture
  ATPase activity of wild-type BceAB stimulated by bacitracin: 0.6–1 μmol of ATP hydrolyzed/min/mg
[1]; proteoliposomes further separated on sucrose gradient
  Specific ATPase activity of wild-type BceAB in the presence of bacitracin: up to 2 μmol ATP hydrolyzed/min/mg
[2]
  Expression of BceA-GFP: strongly activated
[3]
  Growth of the mutant strains: severely impaired
